The results in this text go back to patent publication US20260217706A1, “HETEROCYCLIC COMPOUNDS, PREPARATION METHOD THEREFOR AND USE THEREOF” (GUANGZHOU YUFAN NANTU BIOTECHNOLOGIES CO., LTD, priority 2023, published 2026).

One test has as its target CBL-B protein (Homo sapiens, UniProt Q13191). Briefly: CBL-B binding experiment (Streptavidin-Tb cryptate / Ligand L1 displacement). The following applies: 8 nM CBL-B protein, 25° C., 60 minutes; Ki=Relative IC50/2. An outline of the steps: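 Compounds in a 10-point DMSO series met 8 nM CBL-B protein in HEPES pH 7.5/NaCl/Triton/TCEP/BSA buffer at 25° C. for 60 min. A further 60 min at room temperature preceded the luminescence read, normalised to no-protein and DMSO wells. Ki was taken as relative IC50 divided by 2.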

Test [1] has as its system anti-CD3 activated human PBMCs. Briefly: Effect of compounds on the level of IL-2 secretion by anti-CD3 activated human PBMCs (IL-2 ELISA). Type of test: cell-based. As to conditions: compound concentration at which fold change in IL-2 = 5; hPBMCs, CD3 antibody 2 μg/mL, 48 h, compound from 3 μM. The procedure:
2. Inoculate the resuspended cells into a 96-well cell culture plate at 200 ul/well of cell suspension, and incubate in a 37° C. cell incubator for 1 h;
3. Adjust the compound concentration with DMSO, starting at a final concentration of 3 μM, and perform a 3-fold dilution sequentially for 10 concentration gradients, with an additional DMSO control well set up; and
4. Adjust the CD3 antibody to an appropriate concentration to achieve a final concentration of 2 μg/mL, mix thoroughly, and incubate in a 37° C. cell incubator for 48h.
5. After 48 h, centrifuge at 1500 rpm for 5 min to collect the supernatant of the culture medium for the human IL-2 ELISA test.
The OD values obtained from the ELISA test are converted into the fold change (FC) in IL-2 concentration. […] The EC50 is calculated using GraphPad Prism. When the fold change=5, the corresponding compound concentration is CFC=5 (in nM).
On the technique in general: An ELISA detects its analyte on a solid surface through an enzyme-linked reagent.

Sequence of CBL-B protein (Q13191 whole entry): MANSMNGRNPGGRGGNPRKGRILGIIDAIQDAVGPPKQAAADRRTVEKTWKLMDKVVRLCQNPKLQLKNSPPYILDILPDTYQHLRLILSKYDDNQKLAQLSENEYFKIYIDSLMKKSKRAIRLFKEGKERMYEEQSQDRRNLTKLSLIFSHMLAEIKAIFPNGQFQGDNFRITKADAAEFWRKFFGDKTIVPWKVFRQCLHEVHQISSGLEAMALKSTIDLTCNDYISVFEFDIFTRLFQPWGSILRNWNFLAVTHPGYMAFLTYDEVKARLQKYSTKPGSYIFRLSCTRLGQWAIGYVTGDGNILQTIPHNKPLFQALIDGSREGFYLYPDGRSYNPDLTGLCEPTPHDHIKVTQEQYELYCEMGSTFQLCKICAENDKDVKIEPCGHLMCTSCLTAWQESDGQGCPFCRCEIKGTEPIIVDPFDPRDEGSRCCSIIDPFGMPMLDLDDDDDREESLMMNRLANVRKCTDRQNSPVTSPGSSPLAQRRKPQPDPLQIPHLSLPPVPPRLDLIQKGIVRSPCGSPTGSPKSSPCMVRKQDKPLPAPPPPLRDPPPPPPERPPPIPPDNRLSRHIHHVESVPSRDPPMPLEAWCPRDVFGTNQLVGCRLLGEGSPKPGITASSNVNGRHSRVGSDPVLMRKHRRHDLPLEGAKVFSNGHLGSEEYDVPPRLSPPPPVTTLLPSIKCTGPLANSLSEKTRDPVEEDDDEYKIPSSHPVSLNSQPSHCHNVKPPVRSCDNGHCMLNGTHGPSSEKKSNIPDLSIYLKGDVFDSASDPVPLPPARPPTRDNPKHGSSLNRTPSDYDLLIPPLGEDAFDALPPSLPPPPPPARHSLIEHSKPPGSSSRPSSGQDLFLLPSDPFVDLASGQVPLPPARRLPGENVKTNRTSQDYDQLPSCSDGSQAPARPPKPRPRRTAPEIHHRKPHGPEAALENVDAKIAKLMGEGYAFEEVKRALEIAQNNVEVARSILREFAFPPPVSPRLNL

By Ki is commonly meant a measure of affinity in units of concentration, obtained from inhibition or displacement. A high value points to weaker binding. Molecule `C[C@H]1CCCN(Cc2cc3c(C4CC4)cn(-c4cccc(C5(c6nncn6C)CC6(CC6)C5)c4)c(=O)c3[nH]2)C1` [Compound T030, 4-cyclopropyl-2-[[(3S)-3-methyl-1-piperidyl]methyl]-6-[3-[5-(4-methyl-1,2,4-triazol-3-yl)spiro[2.3]hexan-5-yl]phenyl]-1H-pyrrolo[2,3-c]pyridin-7-one] returned a Ki on CBL-B protein below 50 nM. Further, in test [1], the “IL-2 CFC=5/nM” value is below 500 nM.
At CBL-B protein, `C[C@H]1CCCN(Cc2cc3c(C(F)(F)F)cn(-c4cccc(C5(c6nncn6C)CCC5)c4)c(=O)c3[nH]2)C1` [Compound T033, 2-[[(3S)-3-methyl-1-piperidyl]methyl]-6-[3-[1-(4-methyl-1,2,4-triazol-3-yl)cyclobutyl]phenyl]-4-(trifluoromethyl)-1H-pyrrolo[2,3-c]pyridin-7-one] came in with a Ki below 50 nM. For the same molecule, the “IL-2 CFC=5/nM” value in test [1] is listed as below 500 nM.
In the same order, the values of `Cn1cnnc1C1(c2cccc(-n3cc(C(F)(F)F)c4cc(CNCCC5CCC5)[nH]c4c3=O)c2)CCC1` [Compound T034, 2-(((2-cyclobutylethyl)amino)methyl)-6-(3-(1-(4-methyl-4H-1,2,4-triazol-3-yl)cyclobutyl)phenyl)-4-(trifluoromethyl)-1,6-dihydro-7H-pyrrolo[2,3-c]pyridin-7-one] are below 50 nM and below 500 nM.
In the same order, the values of `Cn1cnnc1[C@]1(c2cccc(-n3cc(C(F)(F)F)c4cc(CNC5(C)CCC5)[nH]c4c3=O)c2)C[C@H](C)C1` [Compound T035, 6-(3-((1s,3s)-3-methyl-1-(4-methyl-4H-1,2,4-triazol-3-yl)cyclobutyl)phenyl)-2-(((1-methylcyclobutyl)amino)methyl)-4-(trifluoromethyl)-1,6-dihydro-7H-pyrrolo[2,3-c]pyridin-7-one] are below 50 nM and below 500 nM.
In the same order, the values of `C[C@H]1CCCN(Cc2cc3c(C4CC4)cn(-c4cccc([C@]5(Cc6nncn6C)C[C@H](C)C5)c4)c(=O)c3[nH]2)C1` [Compound T037, 4-cyclopropyl-6-(3-((1s,3R)-3-methyl-1-((4-methyl-4H-1,2,4-triazol-3-yl)methyl)cyclobutyl)phenyl)-2-(((S)-3-methylpiperidin-1-yl)methyl)-1,6-dihydro-7H-pyrrolo[2,3-c]pyridin-7-one] are below 50 nM and below 500 nM.
Turning to `Cn1cnnc1C1(c2cccc(-n3cc(C(F)(F)F)c4cc(CN5CCC[C@H](O)C5)[nH]c4c3=O)c2)CCC1` [Compound T038, 2-[[(3S)-3-hydroxy-1-piperidyl]methyl]-6-[3-[1-(4-methyl-1,2,4-triazol-3-yl)cyclobutyl]phenyl]-4-(trifluoromethyl)-1H-pyrrolo[2,3-c]pyridin-7-one], on CBL-B protein, the Ki was below 50 nM. In addition, the “IL-2 CFC=5/nM” value in test [1] is given as below 500 nM.
The corresponding values for `CCC(C)CN(C)Cc1cc2c(C(F)(F)F)cn(-c3cccc(C4(c5nncn5C)CCC4)c3)c(=O)c2[nH]1` (centres unmarked) [Compound T040, 2-[[methyl(2-methylbutyl)amino]methyl]-6-[3-[1-(4-methyl-1,2,4-triazol-3-yl)cyclobutyl]phenyl]-4-(trifluoromethyl)-1H-pyrrolo[2,3-c]pyridin-7-one] are below 50 nM and below 500 nM.
In turn, `CCN(Cc1cc2c(C(F)(F)F)cn(-c3cccc(C4(c5nncn5C)CCC4)c3)c(=O)c2[nH]1)CC(C)C` [Compound T041, 2-[[ethyl(isobutyl)amino]methyl]-6-[3-[1-(4-methyl-1,2,4-triazol-3-yl)cyclobutyl]phenyl]-4-(trifluoromethyl)-1H-pyrrolo[2,3-c]pyridin-7-one] returned a Ki on CBL-B protein below 50 nM. The “IL-2 CFC=5/nM” value in test [1] is on record as below 500 nM.
On CBL-B protein, `CCCN(Cc1cc2c(C(F)(F)F)cn(-c3cccc(C4(c5nncn5C)CCC4)c3)c(=O)c2[nH]1)C(C)C` [Compound T042, 2-[[isopropyl(propyl)amino]methyl]-6-[3-[1-(4-methyl-1,2,4-triazol-3-yl)cyclobutyl]phenyl]-4-(trifluoromethyl)-1H-pyrrolo[2,3-c]pyridin-7-one] returned a Ki below 50 nM. The “IL-2 CFC=5/nM” value in test [1] is given as below 500 nM.
In the same order, the values of `C[C@H](NCc1cc2c(C(F)(F)F)cn(-c3cccc(C4(c5nncn5C)CCC4)c3)c(=O)c2[nH]1)C(C)(C)C` [Compound T043, (S)-2-(((3,3-dimethylbutan-2-yl)amino)methyl)-6-(3-(1-(4-methyl-4H-1,2,4-triazol-3-yl)cyclobutyl)phenyl)-4-(trifluoromethyl)-1,6-dihydro-7H-pyrrolo[2,3-c]pyridin-7-one] are below 50 nM and below 500 nM.
In the same order, the values of `Cn1cnnc1[C@]1(c2cccc(-n3cc(C(F)(F)F)c4cc(CNCCC5CC5)[nH]c4c3=O)c2)C[C@H](C)C1` [Compound T045, 2-(((2-cyclopropylethyl)amino)methyl)-6-(3-((1s,3s)-3-methyl-1-(4-methyl-4H-1,2,4-triazol-3-yl)cyclobutyl)phenyl)-4-(trifluoromethyl)-1,6-dihydro-7H-pyrrolo[2,3-c]pyridin-7-one] are below 50 nM and below 500 nM.
The corresponding values for `Cn1cnnc1[C@]1(c2cccc(-n3cc(C(F)(F)F)c4cc(CN5CC[C@H](F)C5)[nH]c4c3=O)c2)C[C@H](C)C1` [Compound T047, 2-(((S)-3-fluoropyrrolidin-1-yl)methyl)-6-(3-((1s,3R)-3-methyl-1-(4-methyl-4H-1,2,4-triazol-3-yl)cyclobutyl)phenyl)-4-(trifluoromethyl)-1,6-dihydro-7H-pyrrolo[2,3-c]pyridin-7-one] are below 50 nM and below 500 nM.
Take `Cn1cnnc1C1(c2cccc(-n3cc(C(F)(F)F)c4cc(CN5CC6CCC(C6)C5)[nH]c4c3=O)c2)CCC1` [Compound T053, 2-(3-azabicyclo[3.2.1]octan-3-ylmethyl)-6-[3-[1-(4-methyl-1,2,4-triazol-3-yl)cyclobutyl]phenyl]-4-(trifluoromethyl)-1H-pyrrolo[2,3-c]pyridin-7-one]: at CBL-B protein, the Ki is below 50 nM. The “IL-2 CFC=5/nM” value in test [1] is below 500 nM.
The corresponding values for `Cn1cnnc1C1(c2cccc(-n3cc(C(F)(F)F)c4cc(CN5CCCC6(CC6)C5)[nH]c4c3=O)c2)CCC1` [Compound T054, 2-(5-azaspiro[2.5]octan-5-ylmethyl)-6-[3-[1-(4-methyl-1,2,4-triazol-3-yl)cyclobutyl]phenyl]-4-(trifluoromethyl)-1H-pyrrolo[2,3-c]pyridin-7-one] are below 50 nM and below 500 nM.
Consider `Cn1cnnc1[C@]1(c2cccc(-n3cc(C(F)(F)F)c4cc(CN5CCC[C@H]6C[C@H]65)[nH]c4c3=O)c2)C[C@H](C)C1` [Compound T055, 2-(((1R,6S)-2-azabicyclo [4.1.0]heptan-2-yl)methyl)-6-(3-((1s,3S)-3-methyl-1-(4-methyl-4H-1,2,4-triazol-3-yl)cyclobutyl)phenyl)-4-(trifluoromethyl)-1,6-dihydro-7H-pyrrolo[2,3-c]pyridin-7-one], for which the Ki at CBL-B protein is below 50 nM. Besides, the “IL-2 CFC=5/nM” value in test [1] is reported as below 500 nM.
In the same order, the values of `Cn1cnnc1[C@]1(c2cccc(-n3cc(C(F)(F)F)c4cc(CN5CCC[C@@H]6C[C@@H]65)[nH]c4c3=O)c2)C[C@H](C)C1` [Compound T056, 2-(((1 S,6R)-2-azabicyclo [4.1.0]heptan-2-yl)methyl)-6-(3-((1s,3R)-3-methyl-1-(4-methyl-4H-1,2,4-triazol-3-yl)cyclobutyl)phenyl)-4-(trifluoromethyl)-1,6-dihydro-7H-pyrrolo[2,3-c]pyridin-7-one] are below 50 nM and below 500 nM.
In the same order, the values of `C[C@H]1CCCN(Cc2cc3c(C(F)(F)F)cn(-c4cccc([C@H](c5nncn5C)C5CCC5)c4)c(=O)c3[nH]2)C1` [Compound T060, 6-(3-((R)-cyclobutyl (4-methyl-4H-1,2,4-triazol-3-yl)methyl)phenyl)-2-(((S)-3-methylpiperidin-1-yl)methyl)-4-(trifluoromethyl)-1,6-dihydro-7H-pyrrolo[2,3-c]pyridin-7-one] are below 50 nM and below 500 nM.
For the molecule `CO[C@H]1C[C@](c2cccc(-n3cc(C(F)(F)F)c4cc(CNC5(C)CCC5)[nH]c4c3=O)c2)(c2nncn2C)C1` [Compound T066, 6-(3-((1r,3r)-3-methoxy-1-(4-methyl-4H-1,2,4-triazol-3-yl)cyclobutyl)phenyl)-2-(((1-methylcyclobutyl)amino)methyl)-4-(trifluoromethyl)-1,6-dihydro-7H-pyrrolo[2,3-c]pyridin-7-one], the inhibitory constant (Ki) at CBL-B protein was below 50 nM. Further, the “IL-2 CFC=5/nM” value in test [1] was below 500 nM.
The corresponding values for `CO[C@H]1C[C@@](c2cccc(-n3cc(C(F)(F)F)c4cc(CNC5(C)CCC5)[nH]c4c3=O)c2)(c2nncn2C)C1` [Compound T067, 6-(3-((1s,3s)-3-methoxy-1-(4-methyl-4H-1,2,4-triazol-3-yl)cyclobutyl)phenyl)-2-(((1-methylcyclobutyl)amino)methyl)-4-(trifluoromethyl)-1,6-dihydro-7H-pyrrolo[2,3-c]pyridin-7-one] are below 50 nM and below 500 nM.
